Measured values taken from the Kinase Knowledgebase extract (Sharma et al. 2016).

Biological target: EGFR (UniProt P00533)
Sequence (P00533 whole entry, looked up): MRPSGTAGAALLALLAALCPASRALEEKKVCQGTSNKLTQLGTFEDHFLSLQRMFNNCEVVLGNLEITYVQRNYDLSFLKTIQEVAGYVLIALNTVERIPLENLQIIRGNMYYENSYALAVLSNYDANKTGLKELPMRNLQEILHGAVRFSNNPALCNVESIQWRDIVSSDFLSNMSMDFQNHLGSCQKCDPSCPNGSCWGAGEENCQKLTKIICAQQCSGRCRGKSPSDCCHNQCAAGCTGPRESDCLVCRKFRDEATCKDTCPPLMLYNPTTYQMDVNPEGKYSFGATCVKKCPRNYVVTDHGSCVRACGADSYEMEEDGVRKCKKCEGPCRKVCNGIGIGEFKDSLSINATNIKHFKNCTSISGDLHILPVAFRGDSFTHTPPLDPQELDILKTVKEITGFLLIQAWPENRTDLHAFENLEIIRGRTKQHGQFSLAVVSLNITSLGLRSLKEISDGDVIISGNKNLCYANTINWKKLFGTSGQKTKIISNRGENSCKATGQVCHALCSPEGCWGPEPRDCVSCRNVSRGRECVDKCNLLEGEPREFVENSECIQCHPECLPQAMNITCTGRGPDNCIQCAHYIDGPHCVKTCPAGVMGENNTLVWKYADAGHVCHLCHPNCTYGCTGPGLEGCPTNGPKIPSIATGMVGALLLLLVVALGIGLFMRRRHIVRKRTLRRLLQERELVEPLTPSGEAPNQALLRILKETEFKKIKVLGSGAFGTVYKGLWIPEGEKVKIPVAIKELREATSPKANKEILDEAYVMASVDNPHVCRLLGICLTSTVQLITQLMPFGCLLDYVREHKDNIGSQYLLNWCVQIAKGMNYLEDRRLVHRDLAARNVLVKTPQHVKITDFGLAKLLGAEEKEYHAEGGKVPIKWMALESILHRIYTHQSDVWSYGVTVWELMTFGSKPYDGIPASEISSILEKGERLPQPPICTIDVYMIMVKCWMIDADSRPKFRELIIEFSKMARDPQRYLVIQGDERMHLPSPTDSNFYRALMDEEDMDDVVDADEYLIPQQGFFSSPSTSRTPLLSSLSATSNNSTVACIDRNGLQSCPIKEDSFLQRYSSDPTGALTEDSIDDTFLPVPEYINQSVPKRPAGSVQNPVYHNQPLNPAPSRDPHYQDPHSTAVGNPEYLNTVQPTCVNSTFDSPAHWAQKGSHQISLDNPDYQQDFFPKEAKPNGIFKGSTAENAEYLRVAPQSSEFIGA

Row | IC50 [µM] | SMILES
1 | 0.003 to 25 | COC(=O)c1cn2ncnc(Nc3cccc(C(=O)O)c3)c2c1C
2 | 0.003 to 25 | COC(=O)c1cn2ncnc(Nc3cccc(S(=O)(=O)O)c3)c2c1C
3 | 0.003 to 25 | Cc1c(C(=O)NCCCN2CCCC2)cn2ncnc(C3C(=O)Nc4ccccc43)c12 (configuration not stated)
4 | 0.003 to 25 | CCc1ccc(Nc2ncnn3cc(C(=O)NCCCN4CCOCC4)c(C)c23)cc1O
5 | 0.003 to 25 | CCOC(=O)c1cn2ncnc(NCc3ccc(Br)cc3)c2c1CC
6 | 0.003 to 25 | Cc1ccc(Nc2ncnn3cc(C(=O)NCCCCN(C)C)c(C)c23)cc1O
7 | 0.003 to 25 | CCOC(=O)c1cn2ncnc(Nc3ccc(O)cc3)c2c1CC
8 | 0.003 to 25 | Cc1c(C(=O)NCCCN2CCOCC2)cn2ncnc(C3C(=O)Nc4cc(F)ccc43)c12 (configuration not stated)
9 | 0.003 to 25 | COC(=O)c1cn2ncnc(Nc3ccc(C(C)C)c(O)c3)c2c1C
10 | 0.003 to 25 | Cc1c(C(=O)NCCCN2CCOCC2)cn2ncnc(Nc3ccc(Br)c(O)c3)c12
11 | 0.003 to 25 | Cc1c(NC(=O)NCCCCN2CCOCC2)cn2ncnc(C3C(=O)Nc4ccccc43)c12 (configuration not stated)
12 | 0.003 to 25 | Cc1ccc(Nc2ncnn3cc(C(=O)NCCCN4CCCC4)c(C)c23)cc1O
13 | 0.003 to 25 | COC(=O)c1cn2ncnc(Nc3ccc(C)c(O)c3)c2c1C
14 | 0.003 to 25 | COc1c(C(=O)NCCN2CCCC2)cn2ncnc(Nc3ccc(Br)cc3F)c12
15 | 0.003 to 25 | COC(=O)c1cn2ncnc(Nc3ccc(C)c(F)c3)c2c1C
16 | 0.003 to 25 | Cc1c(C(=O)NCCCN2CCOCC2)cn2ncnc(Nc3ccc(Br)cc3)c12
17 | 0.003 to 25 | COC(=O)c1cn2ncnc(Nc3ccc(C)c(C#N)c3)c2c1C
18 | 0.003 to 25 | COC(=O)c1cn2ncnc(Nc3cccc(C#N)c3)c2c1C

Row | IC50 [µM] | SMILES
19 | 0.003 to 25 | CCc1c(C(=O)NCCN2CCOCC2)cn2ncnc(Nc3ccc4c(cnn4Cc4ccccc4)c3)c12
20 | 0.003 to 25 | COC(=O)c1cn2ncnc(Nc3cccc(O)c3)c2c1C
21 | 0.003 to 25 | Cc1ccc(Nc2ncnn3cc(C(=O)NCCCN4CCOCC4)c(C)c23)cc1O
22 | 0.003 to 25 | CCCCNS(=O)(=O)c1cccc(Nc2ncnn3cc(C(=O)OC)c(C)c23)c1
23 | 0.003 to 25 | CCOC(=O)c1cn2ncnc(Nc3cccc(Br)c3)c2c1CC
24 | 0.003 to 25 | COC(=O)c1cn2ncnc(Nc3cccc(S(N)(=O)=O)c3)c2c1C
25 | 0.003 to 25 | Cc1c(C(=O)NCCCN2CCN(C)CC2)cn2ncnc(C3C(=O)Nc4ccccc43)c12 (configuration not stated)
26 | 0.003 to 25 | COC(=O)c1cn2ncnc(Nc3ccc4c(c3)N(C(C)=O)CC4)c2c1C
27 | 0.003 to 25 | Cc1nc(C2C(=O)Nc3ccccc32)c2c(C)c(C(=O)NCCCN3CCOCC3)cn2n1 (configuration not stated)
28 | 0.003 to 25 | Cc1c(C(=O)NCCN2CCCC2)cn2ncnc(C3C(=O)Nc4ccccc43)c12 (configuration not stated)
29 | 0.003 to 25 | Cc1c(C(=O)NCCCN2CCOCC2)cn2ncnc(C3C(=O)Nc4ccccc43)c12 (configuration not stated)
30 | 0.003 to 25 | Cc1ccc(Nc2ncnn3cc(C(=O)NCCN(C)C)c(C)c23)cc1O
31 | 0.003 to 25 | COC(=O)c1cn2ncnc(Nc3ccc(OC)cc3)c2c1C
32 | 0.003 to 25 | CCc1c(COCCN2CCOCC2)cn2ncnc(Nc3ccc4c(cnn4Cc4ccccc4)c3)c12
33 | 0.003 to 25 | Cc1c(C(=O)CCN2CCOCC2)cn2ncnc(C3C(=O)Nc4ccccc43)c12 (configuration not stated)
34 | 0.003 to 25 | COC(=O)c1cn2ncnc(Nc3ccc(O)c(C(=O)O)c3)c2c1C
35 | 0.003 to 25 | Cc1c(NC(=O)NCCCN2CCOCC2)cn2ncnc(C3C(=O)Nc4ccccc43)c12 (configuration not stated)
36 | 0.003 to 25 | COc1ccc(Nc2ncnn3cc(C(=O)NCCCN4CCOCC4)c(C)c23)cc1O

The remaining lines, values behind:

Row | SMILES | IC50 [µM]
37 | COC(=O)c1cn2ncnc(C3C(=O)N(C)c4ccccc43)c2c1C (configuration not stated) | 0.003 to 25
38 | CCOC(=O)c1cn2ncnc(Nc3cccc4c3cnn4Cc3ccccc3)c2c1CC | 0.003 to 25
39 | Cc1ccc(Nc2ncnn3cc(CO)c(C)c23)cc1O | 0.003 to 25
40 | COC(=O)c1cn2ncnc(C3C(=O)Nc4ccc(S(=O)(=O)N(C)C)cc43)c2c1C (configuration not stated) | 0.003 to 25
41 | CCOC(=O)c1cn2ncnc(Nc3ccc(C)c(O)c3)c2c1CC | 0.003 to 25
42 | COC(=O)c1cn2ncnc(C3C(=O)Nc4ccc(C#N)cc43)c2c1C (configuration not stated) | 0.003 to 25
43 | Cc1c(C(=O)NCC2CCCO2)cn2ncnc(C3C(=O)Nc4ccccc43)c12 (configuration not stated) | 0.003 to 25
44 | COC(=O)c1cn2ncnc(C3C(=O)Nc4ccc(S(=O)(=O)NCCN5CCCC5)cc43)c2c1C (configuration not stated) | 0.003 to 25
45 | COC(=O)c1cn2ncnc(Nc3ccc(C)cn3)c2c1C | 0.003 to 25
46 | Cc1ccc2c(Nc3ccc(Br)cc3F)ncnn12 | 0.003 to 25
47 | Cc1c(OCCCn2cncn2)cn2ncnc(C3C(=O)Nc4ccccc43)c12 (configuration not stated) | 0.003 to 25
48 | COC(=O)c1cc2c(C3C(=O)Nc4ccccc43)ncnn2c1 (configuration not stated) | 0.003 to 25
49 | CCOC(=O)c1cn2ncnc(Nc3ccc(C)c(N)c3)c2c1CC | 0.003 to 25
50 | CCOC(=O)c1cn2ncnc(Nc3ccc(Oc4ccccc4)cc3)c2c1CC | 0.003 to 25
51 | CCOC(=O)c1cn2ncnc(NCC3CCC(C#N)CC3)c2c1CC (configuration not stated) | 0.003 to 25
52 | COC(=O)c1cn2ncnc(Nc3ccc(C#N)c(O)c3)c2c1C | 0.003 to 25
53 | Cc1c(C(=O)CCN2CCN(C)CC2)cn2ncnc(C3C(=O)Nc4ccccc43)c12 (configuration not stated) | 0.003 to 25
54 | CCOC(=O)c1cn2ncnc(N3CCCC4C=CC=CC43)c2c1CC (configuration not stated) | 0.003 to 25
55 | CCOC(=O)c1cn2ncnc(Nc3ccc(C)c(O)c3)c2c1OCC | 0.003 to 25
56 | CCOC(=O)c1cn2ncnc(Nc3ccc(OC)nc3)c2c1CC | 0.003 to 25
57 | Cc1c(C(=O)NCCCn2ccnc2C)cn2ncnc(C3C(=O)Nc4ccccc43)c12 (configuration not stated) | 0.003 to 25
58 | COC(=O)c1cn2ncnc(Nc3cccc(NS(C)(=O)=O)c3)c2c1C | 0.003 to 25
59 | COc1c(NC(=O)OCc2ccccc2)cn2ncnc(C3C(=O)Nc4ccccc43)c12 (configuration not stated) | 0.003 to 25
60 | Cc1c(C(=O)NCCCn2ccnn2)cn2ncnc(C3C(=O)Nc4ccccc43)c12 (configuration not stated) | 0.003 to 25
61 | CCc1c(C(=O)N(CCCn2ccnc2)c2ccccn2)cn2ncnc(Nc3ccc4c(cnn4Cc4ccccc4)c3)c12 | 0.003 to 25
62 | COC(=O)c1cn2ncnc(-n3[nH]c(=O)c4ccccc43)c2c1C | 0.003 to 25

Row | SMILES | IC50 [µM]
63 | COCCNC(=O)c1cn2ncnc(C3C(=O)Nc4ccccc43)c2c1C (configuration not stated) | 0.003 to 25
64 | CCOC(=O)c1cn2ncnc(Nc3ccc4c(cnn4Cc4ccccc4)c3)c2c1CC | 0.003 to 25
65 | Cc1ccc(Nc2ncnn3cccc23)cc1O | 0.003 to 25
66 | COC(=O)c1cn2ncnc(C3C(=O)Nc4ccc(S(=O)(=O)N5CCOCC5)cc43)c2c1C (configuration not stated) | 0.003 to 25
67 | COC(=O)c1cn2ncnc(Nc3ccc4c(C)cc(=O)[nH]c4c3)c2c1C | 0.003 to 25
68 | CCOC(=O)c1cn2ncnc(NCCc3ccccc3)c2c1CC | 0.003 to 25
69 | Cc1c(N(C)C)c(CO)n2ncnc(C3C(=O)Nc4ccccc43)c12 (configuration not stated) | 0.003 to 25
70 | CCCCNc1ncnn2cc(C(=O)OCC)c(CC)c12 | 0.003 to 25
71 | COC(=O)c1cn2ncnc(C3C(=O)Nc4ccc(NS(C)(=O)=O)cc43)c2c1C (configuration not stated) | 0.003 to 25
72 | CCOC(=O)c1cn2ncnc(NCc3ccccc3Br)c2c1CC | 0.003 to 25
73 | COC(=O)c1cn2ncnc(C3C(=O)Nc4nc(C)ncc43)c2c1C (configuration not stated) | 0.003 to 25
74 | CCc1c(CO)c(Br)n2ncnc(Nc3ccc4c(cnn4Cc4ccccc4)c3)c12 | 0.003 to 25
75 | Cc1ccc(Nc2ncnn3ccc(C)c23)c(O)c1 | 0.003 to 25
76 | COC(=O)c1cn2ncnc(C3C(=O)Nc4ccc(F)cc43)c2c1C (configuration not stated) | 0.003 to 25
77 | CCOC(=O)c1cn2ncnc(NCCOC)c2c1CC | 0.003 to 25
78 | COC(=O)c1cn2ncnc(Nc3ccc(NS(=O)(=O)c4ccccc4)c(O)c3)c2c1C | 0.003 to 25
79 | CCOC(=O)c1cn2ncnc(Nc3ccc(C)c(NS(C)(=O)=O)c3)c2c1CC | 0.003 to 25
80 | CCOC(=O)c1cn2ncnc(N[C@@H](C)c3ccccc3)c2c1CC | 0.003 to 25
81 | COC(=O)c1cn2ncnc(Nc3cc[nH]n3)c2c1C | 0.003 to 25
82 | Cc1cc2c(Nc3ccc(Br)cc3F)ncnn2c1 | 0.003 to 25
83 | COC(=O)c1cn2ncnc(C3C(=O)Nc4ccc(S(N)(=O)=O)cc43)c2c1C (configuration not stated) | 0.003 to 25
84 | COc1c(C(=O)NCCCn2cncn2)cn2ncnc(C3C(=O)Nc4ccccc43)c12 (configuration not stated) | 0.003 to 25
85 | COC(=O)c1cn2ncnc(Nc3ccc(C)c(NS(C)(=O)=O)c3)c2c1C | 0.003 to 25
86 | CCc1c(CO)cn2ncnc(Nc3ccc4c(cnn4Cc4ccccc4)c3)c12 | 0.003 to 25
87 | Cc1c(C(=O)OCc2ccccc2)cn2ncnc(C3C(=O)Nc4ccccc43)c12 (configuration not stated) | 0.003 to 25
88 | CCOC(=O)c1cn2ncnc(N[C@H](C)c3ccccc3)c2c1CC | 0.003 to 25

Row | SMILES | IC50 [µM]
89 | CCOC(=O)c1cn2ncnc(Nc3ccccc3)c2c1CC | 0.003 to 25
90 | Cc1ccc(Nc2ncnn3cc(OCCCn4nccn4)c(C)c23)cc1O | 0.003 to 25
91 | CCOC(=O)c1cn2ncnc(N3CCOCC3)c2c1CC | 0.003 to 25
92 | COC(=O)c1cn2ncnc(Nc3ccc(OC)c(OC)c3)c2c1C | 0.003 to 25
93 | Cc1c(C(=O)NCCCn2cncn2)cn2ncnc(C3C(=O)Nc4ccccc43)c12 (configuration not stated) | 0.003 to 25
94 | CCOC(=O)c1cn2ncnc(Nc3ccc(C)c(O)c3)c2c1C(=O)OCC | 0.003 to 25
95 | CCOC(=O)c1cn2ncnc(Nc3ccc(Br)cc3F)c2c1OC | 0.003 to 25
96 | CCOC(=O)c1cn2ncnc(Nc3ccc(OC)nc3)c2c1C | 0.003 to 25
97 | COC(=O)c1cn2ncnc(Nc3cc(NS(C)(=O)=O)ccc3C)c2c1C | 0.003 to 25
98 | CCOC(=O)c1cn2ncnc(Nc3ccc(F)c(Cl)c3)c2c1Cc1ccccc1 | 0.003 to 25
99 | COC(=O)c1cn2ncnc(Nc3ccccc3S(N)(=O)=O)c2c1C | 0.003 to 25
100 | COc1cn2ncnc(C3C(=O)Nc4ccccc43)c2c1C (configuration not stated) | 0.003 to 25
101 | Cc1c(C(=O)NCCCn2nccn2)cn2ncnc(C3C(=O)Nc4ccccc43)c12 (configuration not stated) | 0.003 to 25
102 | Cc1c(C(N)=O)cn2ncnc(C3C(=O)Nc4ccccc43)c12 (configuration not stated) | 0.003 to 25
103 | COC(=O)c1cn2ncnc(Nc3ccc(NC(C)=O)nc3)c2c1C | 0.003 to 25
104 | COC(=O)c1cn2ncnc(Nc3cccc4cnccc34)c2c1C | 0.003 to 25
105 | Cc1cc2c(Nc3ccc(C)c(O)c3)ncnn2c1 | 0.003 to 25
106 | COC(=O)CCc1cn2ncnc(C3C(=O)Nc4ccccc43)c2c1C (configuration not stated) | 0.003 to 25
107 | CCc1c(C(=O)OCc2ccccc2)cn2ncnc(Nc3ccc(F)c(Cl)c3)c12 | 0.003 to 25
108 | COC(=O)c1cn2ncnc(C3C(=O)Nc4ccc(C(N)=O)cc43)c2c1C (configuration not stated) | 0.003 to 25
109 | CCc1c(C(=O)N(C)C)cn2ncnc(Nc3ccc4c(cnn4Cc4ccccc4)c3)c12 | 0.003 to 25
110 | COC(=O)c1cn2ncnc(-c3c(O)[nH]c4cc(F)ccc34)c2c1C | 0.003 to 25
111 | COC(=O)c1cn2ncnc(N3CCc4ccccc43)c2c1C | 0.003 to 25
112 | CCOC(=O)c1cn2ncnc(Nc3ccc4c(cnn4Cc4ccccc4)c3)c2c1Cc1ccccc1 | 0.003 to 25
